Measured values from US20220409692A1, “Systems Chemico-Pharmacology Drugs and Methods of Use” (The Medical College of Wisconsin, priority 2019, published 2022).
Peptide text beside a SMILES is read from it.

System: hyperoxic neonatal rat pups
Assay: Hyperoxia-induced BPD in neonatal rat pups: lung histology, cell counts and morphometrics
Assay type: in vivo, Sprague-Dawley rat
Excerpt: Since the number of neonatal rat pups per pregnant dam limits the number of experimental conditions that can be compared, we modified our standard experimental design protocol. The first experiment was designed to determine if hyperoxia increased BPD, while the second was designed to determine if inhibiting MPO oxidant production reduced BPD. At least three sets of neonatal pups from three different dams were used for each experiment. Pups were fed ad libitum from nursing dams. Pups were weighed and inspected daily in room air for less than ten minutes. Nursing dams were switched daily to avoid the impact of nutritional status. Experience has taught us that severity of hyperoxia-induced BPD is litter dependent. To minimize litter differences, we determined the effects of hyperoxia vs. normoxia on BPD in neonatal pups by mixing pups from the litters and randomly reallocating pups with nursing dams.
Immunohistochemistry and Immunocytochemistry: After cannulating the trachea with an Instech Solomon (20G) stainless steel feeding tube (Plymouth Meeting, Pa.), the lungs were inflated with 10% neutral buffered formalin at 25 cm-H2O (2.4 kPa) for 1 h. Lungs were removed after the trachea were securely tied with surgical silk to maintain the pressure, and perfusion fixed with an additional aliquot of 10% neutral buffered formalin for 24 h before paraffin embedding. Lung sections (5 μm) were mounted on SuperFrost plus-coated slides (Denville Scientific, Metuchen, N.J.). Slides were deparaffinized and sections stained with hematoxylin and eosin (H&E). Histology images were captured with a mounted digital camera using an Olympus IX 51 microscope and a 10× objective. Inflammatory cells, myeloid cells including neutrophils, monocytes, and macrophages, were stained with MPO antibody (1:200) overnight at 4° C. and HPR-conjugated anti-rabbit antibody (1:1000) at room temperature for one hour then visualized by diaminobenzidine to generate a dark-brown color. Blood vessels were stained with RECA-1 and visualized with horseradish-conjugated secondary antibody and diaminobenzidine. The average of three sections per pup, and five counts per section (15 counts/pup) was used for statistical analysis. Quantified data were obtained and entered into the record using predetermined codes by one of the coauthors who was not involved in taking the images.
Morphometric Analysis: The mean linear intercept (MLI), or chord length, was used as a method to estimate the volume-to-surface ratio of acinar airspaces whereas radial alveolar count (RAC) and secondary septa were investigated to study the complexity of lung structure (21). Ten equally spaced horizontal lines were drawn on each picture, and the number of intercepts through the alveolar wall was counted. MLI was obtained by the number of times the traverses are placed on the lung times the length of the traverse then divided by the sum of all the intercepts. For the RAC, a line from the center of the respiratory tract perpendicular to the nearest connective tissue septum was drawn, and alveoli intercepting with the line were counted. For measurement of secondary septa, elastin was stained with resorcin fuchsin and Van Gieson's solution.
Since the number of neonatal rat pups per pregnant dam limits the number of experimental conditions that can be compared, we modified our standard experimental protocol. The first study was designed to determine if hyperoxia increased BPD and caused a change in proteins of interest. Data from these studies can be found in on-line supplemental data. The second study was designed to determine if inhibiting MPO toxic oxidant production reduced BPD. At least three sets of neonatal pups from three different dams were used for each study. Pups were fed ad libitum from nursing dams. Pups were inspected daily starting on P1 and weighed starting on P3 in room air for less than ten minutes. Nursing dams were switched daily to avoid the impact of oxygen toxicity. […]

[1] = hyperoxic pups, KYC vs PBS, P10

CC(=O)N[C@@H](CCCCN)C(=O)N[C@@H](Cc1ccc(O)cc1)C(=O)N[C@@H](CS)C(N)=O [KYC, N-acetyl lysyltyrosylcysteine amide] (Ac-Lys-Tyr-Cys-NH2)
RAC (radial alveolar count) (KYC-treated HOX group, P10, PBS-treated HOX 4.2±0.6): 6.3±0.4 | secondary septation (KYC-treated HOX group, P10, PBS-treated HOX 5.0±1.3): 7.8±1.2 /HPF | capillary count (KYC-treated HOX group, P10, PBS-treated HOX 5.2±1.0): 9.7±3.0 /HPF | MLI (mean linear intercept) (KYC-treated HOX group, P10, PBS-treated HOX 95.9±9.1): 74.1±4.7 μm | MPO-positive myeloid cell count (hyperoxia (O2>90%) pups, KYC 5 mg/kg twice per day i.p. P2-P10, lungs at P10, PBS 2.0±0.7): 0.8±0.7 /HPF | reduction of myeloid cell recruitment (MPO+ myeloid cells) (hyperoxic lungs, KYC vs PBS, P10): approximately 50% | decrease of MLI [1]: approximately 22% | increase of RAC [1]: approximately 35% | increase of blood vessel counts [1]: ~92% | increase of secondary septa [1]: ~55% | 8-OH-dG immunofluorescence staining (oxidative DNA damage) (hyperoxic rat pups, KYC vs PBS): reduced 8-OH-dG in the nuclei of lung cells
